Source: paper PMC7991740, “Introduction of Non-natural Amino Acids Into T-Cell Epitopes to Mitigate Peptide-Specific T-Cell Responses” (Frontiers in Immunology, 2021)
Like-named read-outs stand apart in the source and are kept apart here. *1 amine or outer side, *2 acyl side, *3 side chain or, on linkers, in order; H or OH if unused. Where a SMILES comes first, the peptide text is derived from it. [ ]: non-standard residue; d: D form. X1 = NCCCC[C@@H](C(=O)[*:2])N(C[C@@H]1CCCN1)[*:1]; Aib = CC(C)(N)C(=O)O

What was measured:
Assay in all cases: biochemical
Format in all cases: binding
HLA-DRB1*04:01 = molecular target: T1, HLA-DRB1*04:01 (Homo sapiens, UniProt P01903+P01911, A100K/A169T/F76Y/I96L/K127E/L162R/M171V/N62H/P40V/Q125Y/R42H/S133A/S149N/S66Y/V115G/V209L/W38E)
T1 construct: Human leukocyte antigen-DR molecules were immunopurified from homozygous EBV B lymphoblastoid cells; endogenous in cells

HLA-DRB5*01:01 = molecular target: T2, HLA-DRB5*01:01 (Homo sapiens, UniProt P01903+Q30154)
T2 construct: Human leukocyte antigen-DR molecules were immunopurified from homozygous EBV B lymphoblastoid cells; endogenous in cells

HLA-DRB1*07:01 = HLA-DRB1*07:01 (Homo sapiens, UniProt P01903+P01911, A100R/A102G/A103Q/D57E/D86V/E43K/F76Y/K127E/L162R/M171V/P40G/Q125H/Q99D/R33Q/R42Y/R54Q/S133A/S66F/T210M/V115G/Y107V/Y59L/Y89S)
HLA-DRB1*11:01 = HLA-DRB1*11:01 (Homo sapiens, UniProt P01903+P01911, A100R/A169T/A87E/I96F/K41T/L162R/M171V/P40S/Q125H/Q178H/Q39Y/Q99D/R42S/S66Y/T262R/V115G/W38E)
Chain of HLA-DRB1*11:01 (P01903 26-254 limits assumed, other chains not shown): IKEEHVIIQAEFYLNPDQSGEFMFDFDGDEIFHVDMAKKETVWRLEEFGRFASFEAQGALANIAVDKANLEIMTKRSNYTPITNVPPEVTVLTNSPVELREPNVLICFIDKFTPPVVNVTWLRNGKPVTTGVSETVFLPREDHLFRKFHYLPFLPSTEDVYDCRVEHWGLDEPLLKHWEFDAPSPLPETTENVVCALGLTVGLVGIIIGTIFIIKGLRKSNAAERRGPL
HLA-DRB1*01:01 = molecular target: T3, HLA-DRB1*01:01 (Homo sapiens, UniProt P01903+P01911, A100R/D57E/F55L/F60I/F76Y/I96L/L162R/M171V/P40L/Q125E/R42F/V115G/Y59C)
T3 construct: Human leukocyte antigen-DR molecules were immunopurified from homozygous EBV B lymphoblastoid cells; endogenous in cells

[1] = […], mean of at least two independent experiments, read-out: IC50 DRB1*0401
[2] = […], mean of at least two independent experiments, read-out: IC50 DRB5*0101
[3] = […], mean of at least two independent experiments, read-out: IC50 DRB1*0701 (converted)
[4] = […], mean of at least two independent experiments, read-out: IC50 DRB1*1101 (converted)
[5] = […], mean of at least two independent experiments, read-out: IC50 DRB1*0101

Row | Structure (SMILES) | IC50 (HLA-DRB1*04:01; [1]) | IC50 (HLA-DRB5*01:01; [2]) | IC50 (HLA-DRB1*07:01; [3]) | IC50 (HLA-DRB1*11:01; [4]) | IC50 (HLA-DRB1*01:01; [5]) | IC50 (HLA-DRB1*04:01) | IC50 (HLA-DRB5*01:01) | IC50 (HLA-DRB1*07:01) | IC50 (HLA-DRB1*11:01) | IC50 (HLA-DRB1*01:01; IC50 DRB1*0101)
1 | CC(C)C[C@H](NC(=O)[C@H](CCCCN)NC(=O)[C@H](CC(C)C)NC(=O)[C@@H](NC(=O)C(C)(C)NC(=O)[C@H](CCC(N)=O)NC(=O)[C@H](CCCCN)NC(=O)[C@@H](NC(=O)[C@H](Cc1ccc(O)cc1)NC(=O)[C@H](CCCCN)NC(=O)[C@@H]1CCCN1)C(C)C)[C@@H](C)O)C(=O)N[C@@H](C)C(=O)N[C@H](C(=O)O)[C@@H](C)O [Aib7] (H-PKYVKQ[Aib]TLKLAT-OH) | 45 nM | 900 nM | 4200 nM | 6000 nM | 6.8 nM | – | – | – | – | –
2 | CC(C)C[C@H](NC(=O)[C@H](CCCCN)NC(=O)[C@H](CC(C)C)NC(=O)[C@@H](NC(=O)[C@H](CC(N)=O)NC(=O)[C@H](CCC(N)=O)NC(=O)[C@H](CCCCN)NC(=O)[C@@H](NC(=O)C(C)(C)NC(=O)[C@H](CCCCN)NC(=O)[C@@H]1CCCN1)C(C)C)[C@@H](C)O)C(=O)N[C@@H](C)C(=O)N[C@H](C(=O)O)[C@@H](C)O [Aib3] | > 100000 nM | > 10000 nM | 460 nM | > 100000 nM | 60 nM | – | – | – | – | –
3 | CC(C)C[C@H](NC(=O)[C@H](CCCCN)NC(=O)[C@H](CC(C)C)NC(=O)C(C)(C)NC(=O)[C@H](CC(N)=O)NC(=O)[C@H](CCC(N)=O)NC(=O)[C@H](CCCCN)NC(=O)[C@@H](NC(=O)[C@H](Cc1ccc(O)cc1)NC(=O)[C@H](CCCCN)NC(=O)[C@@H]1CCCN1)C(C)C)C(=O)N[C@@H](C)C(=O)N[C@H](C(=O)O)[C@@H](C)O [Aib8] | 140 nM | 140 nM | 90 nM | 550 nM | 0.8 nM | – | – | – | – | –
4 | CC(C)C[C@H](NC(=O)[C@@H](NC(=O)[C@H](CC(N)=O)NC(=O)[C@H](CCC(N)=O)NC(=O)[C@H](CCCCN)NC(=O)[C@@H](NC(=O)[C@H](Cc1ccc(O)cc1)NC(=O)[C@H](CCCCN)NC(=O)[C@@H]1CCCN1)C(C)C)[C@@H](C)O)C(=O)NC(C)(C)C(=O)N[C@@H](CC(C)C)C(=O)N[C@@H](C)C(=O)N[C@H](C(=O)O)[C@@H](C)O [Aib10] | 490 nM | 5000 nM | 16000 nM | 8000 nM | 9 nM | – | – | – | – | –
5 | CC(C)C[C@H](NC(=O)[C@H](CCCCN)NC(=O)[C@H](CC(C)C)NC(=O)[C@@H](NC(=O)[C@H](CC(N)=O)NC(=O)[C@H](CCC(N)=O)NC(=O)[C@H](CCCCN)NC(=O)C(C)(C)NC(=O)[C@H](Cc1ccc(O)cc1)NC(=O)[C@H](CCCCN)NC(=O)[C@@H]1CCCN1)[C@@H](C)O)C(=O)N[C@@H](C)C(=O)N[C@H](C(=O)O)[C@@H](C)O [Aib4] | 75 nM | 280 nM | 6000 nM | 4000 nM | 10 nM | – | – | – | – | –
6 | CC(C)C[C@H](NC(=O)[C@H](CCCCN)NC(=O)[C@H](CC(C)C)NC(=O)[C@@H](NC(=O)[C@H](CC(N)=O)NC(=O)[C@H](CCC(N)=O)NC(=O)[C@H](CCCCN)NC(=O)[C@@H](NC(=O)[C@H](Cc1ccc(O)cc1)NC(=O)[C@H](CCCCN)NC(=O)C(C)(C)N)C(C)C)[C@@H](C)O)C(=O)N[C@@H](C)C(=O)N[C@H](C(=O)O)[C@@H](C)O [Aib1] (H-[Aib]KYVKQNTLKLAT-OH) | 20 nM | 3 nM | 11 nM | 18 nM | 0.3 nM | – | – | – | – | –
7 | CC(C)C[C@H](NC(=O)[C@H](CCCCN)NC(=O)[C@H](CC(C)C)NC(=O)[C@@H](NC(=O)[C@H](CC(N)=O)NC(=O)[C@H](CCC(N)=O)NC(=O)[C@H](CCCCN)NC(=O)[C@@H](NC(=O)[C@H](Cc1ccc(O)cc1)NC(=O)[C@H](CCCCN)NC[C@@H]1CCCN1)C(C)C)[C@@H](C)O)C(=O)N[C@@H](C)C(=O)N[C@H](C(=O)O)[C@@H](C)O [Rd1] (H-[X1]YVKQNTLKLAT-OH; N-terminus and C-terminus assumed) | 25 nM | 120 nM | 140 nM | 2500 nM | 2 nM | – | – | – | – | –
8 | CC(C)C[C@H](NC(=O)[C@H](CCCCN)NC(=O)[C@H](CC(C)C)NC(=O)[C@@H](NC(=O)[C@H](CC(N)=O)NC(=O)[C@H](CCC(N)=O)NC(=O)[C@H](CCCCN)NC(=O)[C@@H](NC(=O)[C@H](Cc1ccc(O)cc1)NC(=O)C(C)(C)NC(=O)[C@@H]1CCCN1)C(C)C)[C@@H](C)O)C(=O)N[C@@H](C)C(=O)N[C@H](C(=O)O)[C@@H](C)O [Aib2] (H-P[Aib]YVKQNTLKLAT-OH) | 95 nM | 500 nM | 7700 nM | 4000 nM | 8 nM | – | – | – | – | –
9 | CC(C)C[C@H](NC(=O)[C@H](CCCCN)NC(=O)[C@H](CC(C)C)NC(=O)[C@@H](NC(=O)[C@H](CC(N)=O)NC(=O)[C@H](CCC(N)=O)NC(=O)[C@H](CCCCN)NC(=O)[C@@H](NC(=O)[C@H](Cc1ccc(O)cc1)NC(=O)[C@H](CCCCN)NC(=O)[C@@H]1CCCN1)C(C)C)[C@@H](C)O)C(=O)N[C@@H](C)C(=O)NC(C)(C)C(=O)O [Aib13] | 6 nM | 2 nM | 6 nM | 8 nM | 0.2 nM | – | – | – | – | –
10 | CC(C)C[C@H](NC(=O)[C@H](CCCCN)NC(=O)[C@H](CC(C)C)NC(=O)[C@@H](NC(=O)[C@H](CC(N)=O)NC(=O)CN(CCC(N)=O)C(=O)[C@H](CCCCN)NC(=O)[C@@H](NC(=O)[C@H](Cc1ccc(O)cc1)NC(=O)[C@H](CCCCN)NC(=O)[C@@H]1CCCN1)C(C)C)[C@@H](C)O)C(=O)N[C@@H](C)C(=O)N[C@H](C(=O)O)[C@@H](C)O [Pep6] | 82 nM | 10 nM | 290 nM | 45 nM | 0.4 nM | – | – | – | – | –
11 | CC(C)C[C@H](NC(=O)[C@H](CCCCN)NC(=O)[C@H](CC(C)C)NC(=O)[C@@H](NC(=O)[C@H](CC(N)=O)NC(=O)[C@H](CCC(N)=O)NC(=O)[C@H](CCCCN)NC(=O)[C@@H](NC(=O)CN(Cc1ccc(O)cc1)C(=O)[C@H](CCCCN)NC(=O)[C@@H]1CCCN1)C(C)C)[C@@H](C)O)C(=O)N[C@@H](C)C(=O)N[C@H](C(=O)O)[C@@H](C)O [Pep3] | > 10000 nM | 14000 nM | > 100000 nM | > 100000 nM | 4000 nM | – | – | – | – | –
12 | CC(C)C[C@H](NC(=O)[C@H](CCCCN)NC(=O)[C@H](CC(C)C)NC(=O)[C@@H](NC(=O)[C@H](CC(N)=O)NC(=O)[C@H](CCC(N)=O)NC(=O)C(C)(C)NC(=O)[C@@H](NC(=O)[C@H](Cc1ccc(O)cc1)NC(=O)[C@H](CCCCN)NC(=O)[C@@H]1CCCN1)C(C)C)[C@@H](C)O)C(=O)N[C@@H](C)C(=O)N[C@H](C(=O)O)[C@@H](C)O [Aib5] | 30 nM | 600 nM | 780 nM | 300 nM | 1 nM | – | – | – | – | –
13 | CC(C)C[C@H](NC(=O)[C@H](CCCCN)NC(=O)[C@H](CC(C)C)NC(=O)[C@@H](NC(=O)CN(CC(N)=O)C(=O)[C@H](CCC(N)=O)NC(=O)[C@H](CCCCN)NC(=O)[C@@H](NC(=O)[C@H](Cc1ccc(O)cc1)NC(=O)[C@H](CCCCN)NC(=O)[C@@H]1CCCN1)C(C)C)[C@@H](C)O)C(=O)N[C@@H](C)C(=O)N[C@H](C(=O)O)[C@@H](C)O [Pep7] | – | – | – | – | – | 450 nM | 15 nM | 16 nM | 200 nM | 0.3 nM
14 | CC(C)C[C@H](NC(=O)[C@H](CCCCN)NC(=O)[C@H](CC(C)C)NC(=O)[C@@H](NC(=O)[C@H](CC(N)=O)NC(=O)C(C)(C)NC(=O)[C@H](CCCCN)NC(=O)[C@@H](NC(=O)[C@H](Cc1ccc(O)cc1)NC(=O)[C@H](CCCCN)NC(=O)[C@@H]1CCCN1)C(C)C)[C@@H](C)O)C(=O)N[C@@H](C)C(=O)N[C@H](C(=O)O)[C@@H](C)O [Aib6] | 55000 nM | 5 nM | 75 nM | 150 nM | 0.7 nM | – | – | – | – | –
